As usually defined, the IC50 is the midpoint of a concentration-inhibition curve. High values mean a need for much substance, low ones inhibition by little substance.

The target in this test is T1, human AhR (Homo sapiens, UniProt P35869).
T1 construct: INDIGO's Aryl Hydrocarbon Receptor (AhR) Reporter Cells include the luciferase reporter gene functionally linked to an AhR-responsive promoter
T1 sequence (P35869 11-848): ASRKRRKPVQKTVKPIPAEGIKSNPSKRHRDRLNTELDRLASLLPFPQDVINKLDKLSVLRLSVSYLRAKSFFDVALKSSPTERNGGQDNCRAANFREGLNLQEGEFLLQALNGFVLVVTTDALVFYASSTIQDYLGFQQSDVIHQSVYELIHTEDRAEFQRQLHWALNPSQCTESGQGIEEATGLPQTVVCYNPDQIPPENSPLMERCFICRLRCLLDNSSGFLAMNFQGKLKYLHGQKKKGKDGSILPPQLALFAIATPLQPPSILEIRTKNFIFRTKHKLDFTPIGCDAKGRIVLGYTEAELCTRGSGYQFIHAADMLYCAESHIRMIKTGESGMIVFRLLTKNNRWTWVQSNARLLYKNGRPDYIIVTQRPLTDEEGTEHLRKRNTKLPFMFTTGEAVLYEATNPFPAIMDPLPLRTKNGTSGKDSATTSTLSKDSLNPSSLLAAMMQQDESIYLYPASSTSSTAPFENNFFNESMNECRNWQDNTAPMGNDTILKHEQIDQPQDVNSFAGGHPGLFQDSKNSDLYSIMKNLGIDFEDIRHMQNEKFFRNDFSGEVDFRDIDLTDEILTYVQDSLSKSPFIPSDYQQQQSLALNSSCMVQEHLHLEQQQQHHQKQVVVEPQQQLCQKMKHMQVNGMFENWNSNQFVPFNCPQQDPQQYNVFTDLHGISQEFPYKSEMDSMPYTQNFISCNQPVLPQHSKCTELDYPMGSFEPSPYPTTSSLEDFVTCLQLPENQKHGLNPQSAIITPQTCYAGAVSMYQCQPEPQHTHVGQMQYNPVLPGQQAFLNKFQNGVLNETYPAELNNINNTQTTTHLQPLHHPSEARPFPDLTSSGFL
The test can be described thus: INDIGO AhR Reporter Assay (luciferase reporter cells, antagonist mode). In kind it is cell-based. The settings on record: antagonist mode with 50 nM of VAF347 (AhR agonist); 22-24 hours incubation; luciferase RLU. The source says: INDIGO's Aryl Hydrocarbon Receptor (AhR) Reporter Cells include the luciferase reporter gene functionally linked to an AhR-responsive promoter. Thus, quantifying changes in luciferase expression in the treated reporter cells provides a sensitive surrogate measure of the changes in AhR activity. The principle application of this reporter assay is in the screening of test samples to quantify any functional activity, either agonist or antagonist, that they may exert against human AhR. Reporter Cells incorporate the cDNA encoding beetle luciferase, a 62 kD protein originating from the North American firefly (Photinus pyralis). Luciferase catalyzes the mono-oxidation of D-luciferin in a Mg^2+-dependent reaction that consumes 02 and ATP as co-substrates, and yields as products oxyluciferin, AMP, PPi, CO2, and photon emission. Luminescence intensity of the reaction is quantified using a luminometer, and is reported in terms of Relative Light Units (RLU's). In brief, 200 μl of Reporter Cells was dispensed into wells of the assay plate and pre-incubated for 4-6 hours. Following the pre-incubation period, culture media were discarded and 200 µl/well of the prepared 1×-concentration treatment media were added. Following 22-24 hours of incubation, treatment media were discarded and Luciferase Detection Reagent was added. The intensity of light emission (in units of “Relative Light Units” (RLU)) from each assay well was quantified using a plate-reading luminometer. The assay was run as a competitive binding assay in the antagonist mode with 50 nM of VAF347, a known AhR agonist.
In Table 4, IC50 values are reported as A, B, C, or D. A represents an IC50 value of less than 100 nM. B represents an IC50 value of equal or greater than 100 nM and less than 500 nM. C represents an IC50 value of equal or greater than 500 nM and less than 1 μM. D represents an IC50 value of equal or greater than 1 μM.
As to `Cc1cc(F)ccc1-c1cc(NC(=O)c2cc3ncccc3cc2Cl)n(C)n1` [Compound 57, 6-Chloro-N-(3-(4-fluoro-2-methylphenyl)-1-methyl-1H-pyrazol-5-yl) quinoline-7-carboxamide], the IC50 was in the range of 0.1 to 0.5 µM. As for `Cc1cc(Cl)ccc1-c1cc(NC(=O)c2cc3ncccc3cc2Cl)n(C)n1` [Compound 58, 6-Chloro-N-(3-(4-chloro-2-methylphenyl)-1-methyl-1H-pyrazol-5-yl)quinoline-7-carboxamide], the IC50 lay within 0.1 to 0.5 µM.

Consider `Cc1ccc(C(F)(F)F)cc1-c1cc(NC(=O)c2cc3ncccc3cc2Cl)n(C)n1` [Compound 59], for which the IC50 lay in the range of 0.1 to 0.5 µM. With `Cn1nc(C(F)(F)F)cc1NC(=O)c1ccc2cc(-c3cccc(F)c3)cnc2c1` [Compound 60, 3-(3-Fluorophenyl)-N-[1-methyl-3-(trifluoromethyl)-1H-pyrazol-5-yl]quinoline-7-carboxamide], the IC50 was greater than 1 µM. For the compound `Cn1nc(C(F)(F)F)cc1NC(=O)c1ccc2cc(-c3ccc(F)cc3)cnc2c1` [Compound 61, 3-(4-Fluorophenyl)-N-[1-methyl-3-(trifluoromethyl)-1H-pyrazol-5-yl]quinoline-7-carboxamide], the IC50 was less than 0.1 µM.

Turning to `Cc1ccc(-c2cnc3cc(C(=O)Nc4cc(C(F)(F)F)nn4C)ccc3c2)cc1` [Compound 62, N-[1-Methyl-3-(trifluoromethyl)-1H-pyrazol-5-yl]-3-(4-methylphenyl) quinoline-7-carboxamide], the IC50 was in the range of 0.1 to 0.5 µM. In turn, `CCN1CCN(c2ccc(NC(=O)c3ccc4cc(-c5ccccc5)cnc4c3)cc2F)CC1` [Compound 64, N-[4-(4-ethylpiperazin-1-yl)-3-fluorophenyl]-3-phenylquinoline-7-carboxamide] yielded an IC50 greater than 1 µM. As for `Cn1nc(C(F)(F)F)cc1NC(=O)c1ccc2cc(-c3cccc(Cl)c3)cnc2c1` [Compound 65, 3-(3-chlorophenyl)-N-[1-methyl-3-(trifluoromethyl)-1H-pyrazol-5-yl]quinoline-7-carboxamide], the half-maximal inhibitory concentration (IC50) was greater than 1 µM. As to `Cn1nc(C(F)(F)F)cc1NC(=O)c1ccc2cc(-c3ccccc3Cl)cnc2c1` [Compound 66, 3-(2-Chlorophenyl)-N-[1-methyl-3-(trifluoromethyl)-1H-pyrazol-5-yl]quinoline-7-carboxamide], the IC50 was 0.1 to 0.5 µM. On to `Cn1nc(C(F)(F)F)cc1NC(=O)c1ccc2cc(-c3ccsc3)cnc2c1` [Compound 67, N-[1-Methyl-3-(trifluoromethyl)-1H-pyrazol-5-yl]-3-(thiophen-3-yl)quinoline-7-carboxamide], for which the IC50 is less than 0.1 µM. On to `Cn1nc(C(F)(F)F)cc1NC(=O)c1ccc2cc(-c3cccs3)cnc2c1` [Compound 73, N-[1-Methyl-3-(trifluoromethyl)-1H-pyrazol-5-yl]-3-(thiophen-2-yl)quinoline-7-carboxamide], for which the IC50 is less than 0.1 µM. To `Cn1nc(C(C)(C)C)cc1NC(=O)c1ccc2cc(-c3ccc(F)cc3)cnc2c1` [Compound 74, 3-(4-Fluorophenyl)-N-[1-methyl-3-(tert-butyl)-1H-pyrazol-5-yl]quinoline-7-carboxamide] belongs 0.1 to 0.5 µM; to `Cn1nc(C(F)(F)F)cc1NC(=O)c1ccc2cc(-c3ccc(F)cc3F)cnc2c1` [Compound 75, 3-(2,4-Difluorophenyl)-N-[1-methyl-3-(trifluoromethyl)-1H-pyrazol-5-yl]quinoline-7-carboxamide], less than 0.1 µM. To `Cn1nccc1NC(=O)c1ccc2c(Oc3ccccc3)ccnc2c1` [Compound 76, N-(1-Methyl-1H-pyrazol-5-yl)-4-phenoxyquinoline-7-carboxamide] belongs greater than 1 µM.

On to `Cn1nc(C(F)(F)F)cc1NC(=O)c1ccc2cc(-c3cccnc3)cnc2c1` [Compound 77, N-[1-methyl-3-(trifluoromethyl)-1H-pyrazol-5-yl]-3-(pyridin-3-yl)quinoline-7-carboxamide], for which the IC50 is greater than 1 µM. Compound `Cn1nc(C(F)(F)F)cc1NC(=O)c1ccc2cc(-c3ccncc3)cnc2c1` [Compound 78, N-[1-methyl-3-(trifluoromethyl)-1-pyrazol-yl]-3-(pyridin-4-yl)quinoline-7-carboxamide] had an IC50 of 0.1 to 0.5 µM.

As to `O=C(Nc1ccc(C(F)(F)F)nc1)c1ccc2c(N3CCOCC3)ccnc2c1` [Compound 80, 4-morpholino-N-(6-(trifluoromethyl)pyridin-3-yl)quinoline-7-carboxamide], the IC50 was greater than 1 µM. To `Cc1ccccc1-c1cnc2cc(C(=O)Nc3ccc(C(F)(F)F)nc3)ccc2c1` [Compound 81, 3-(o-tolyl)-N-(6-(trifluoromethyl)pyridin-3-yl)quinoline-7-carboxamide] belongs 0.1 to 0.5 µM; to `O=C(Nc1ccc(C(F)(F)F)nc1)c1ccc2cc(-c3nccs3)cnc2c1` [Compound 83, 3-(thiazol-2-yl)-N-(6-(trifluoromethyl)pyridin-3-yl)quinoline-7-carboxamide], 0.5 to 1 µM; to `Cn1cc(-c2ccccc2)nc1NC(=O)c1cc2ncccc2cc1Cl` [Compound 90, 6-chloro-N-(1-methyl-4-phenyl-1H-imidazol-2-yl)quinoline-7-carboxamide], 0.5 to 1 µM. For `Cn1nc(C(F)(F)F)cc1NC(=O)c1ccc2cc(-c3nccs3)cnc2c1` [Compound 93, N-(1-methyl-3-(trifluoromethyl)-1H-pyrazol-5-yl)-3-(thiazol-2-yl)quinoline-7-carboxamide], the IC50 was less than 0.1 µM.

`Cc1ccccc1-c1cc(NC(=O)c2ccc3cc(-c4ccc(F)cc4)cnc3c2)n(C)n1` [Compound 95, 3-(4-fluorophenyl)-N-(1-methyl-3-(o-tolyl)-1H-pyrazol-5-yl)quinoline-7-carboxamide] had an IC50 of less than 0.1 µM.

The compound `Cc1ccccc1-c1cc(NC(=O)c2ccc3cc(-c4ccc(F)cc4F)cnc3c2)n(C)n1` [Compound 96, 3-(2,4-difluorophenyl)-N-(1-methyl-3-(o-tolyl)-1H-pyrazol-5-yl)quinoline-7-carboxamide] gave a half-inhibitory concentration (IC50) of less than 0.1 µM. Compound `Cc1ccccc1-c1cc(NC(=O)c2ccc3cc(-c4cccs4)cnc3c2)n(C)n1` [Compound 97, N-(1-methyl-3-(o-tolyl)-1H-pyrazol-5-yl)-3-(thiophen-2-yl)quinoline-7-carboxamide] yielded an IC50 of less than 0.1 µM. To `Cn1nc(C(F)(F)F)cc1NC(=O)c1ccc2cc(-c3ccncc3F)cnc2c1` [Compound 98, 3-(3-fluoropyridin-4-yl)-N-[1-methyl-3-(trifluoromethyl)-1H-pyrazol-5-yl]quinoline-7-carboxamide] belongs 0.1 to 0.5 µM; to `CC(C)Oc1ccnc2cc(C(=O)Nc3cc(C(F)(F)F)nn3C)ccc12` [Compound 99, 4-Isopropoxy-N-[1-methyl-3-(trifluoromethyl)-1H-pyrazol-5-yl]quinoline-7-carboxamide], greater than 1 µM.

In turn, `Cn1nc(C(F)(F)F)cc1NC(=O)c1ccc2cc(-c3ccccn3)cnc2c1` [Compound 100, N-(1-methyl-3-(trifluoromethyl)-1H-pyrazol-5-yl)-3-(pyridine-2-yl)quinoline-7-carboxamide] showed a concentration for half-maximal inhibition (IC50) of less than 0.1 µM. In the case of `Cn1nc(C(F)(F)F)cc1NC(=O)c1ccc2cc(-c3ccc(F)cn3)cnc2c1` [Compound 101, 3-(5-fluoropyridin-2-yl)-N-(1-methyl-3-(trifluoromethyl)-1H-pyrazol-5-yl)quinoline-7-carboxamide], the IC50 is less than 0.1 µM.

The values above are taken from US12312337B2, “Compounds and methods for treating cancer” (ANTIDOTE IP HOLDINGS, LLC, priority 2019, dated 2025).
